Measurements reported in the supplement of paper PMC10307832.

Columns and labels:
Test in all cases: relative viability (nuclei count vs DMSO), 5 days (fraction); higher = more cells survive
NCI-H647 = system: NCI-H647
How it was run: (§1)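 For relative viability, nuclei counts in treated wells were divided by those in vehicle wells. Lung cancer cell lines had been pin-tool dosed in 1536-well plates the day after seeding and cultured for 5 days, then fixed and stained in one step (final 0.05% Triton X-100, 1% formaldehyde, 1 ug/ml Hoechst) and imaged at 4×. Doses were one drug alone or a fixed anchor-drug dose plus five library-drug doses (not always all listed) in √10 steps, and values are duplicate-plate medians.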

NCI-H460 = system: NCI-H460
How it was run: as §1

HCC-78 = system: HCC-78
How it was run: as §1

A-427 = system: A-427
How it was run: as §1

NCI-H661 = system: NCI-H661
How it was run: as §1

HCC-15 = system: HCC-15
How it was run: as §1

HOP-62 = system: HOP-62
How it was run: as §1

PC-14 = system: PC-14
How it was run: as §1

EMC-BAC-2 = system: EMC-BAC-2
How it was run: as §1

NCI-H2405 = system: NCI-H2405
How it was run: as §1

COR-L23 = system: COR-L23
How it was run: as §1

NCI-H522 = system: NCI-H522
How it was run: as §1

EKVX = system: EKVX
How it was run: as §1

201T = system: 201T
How it was run: as §1

SK-MES-1 = system: SK-MES-1
How it was run: as §1

NCI-H1915 = system: NCI-H1915
How it was run: as §1

LK-2 = system: LK-2
How it was run: as §1

BEN = system: BEN
How it was run: as §1

NCI-H1993 = system: NCI-H1993
How it was run: as §1

HCC-366 = system: HCC-366
How it was run: as §1

COR-L 105 = system: COR-L 105
How it was run: as §1

NCI-H1734 = system: NCI-H1734
How it was run: as §1

Cc1cn(-c2cc(NC(=O)c3ccc(C)c(Nc4nccc(-c5cccnc5)n4)c3)cc(C(F)(F)F)c2)cn1 [Nilotinib] + Cc1cc(Nc2cc(N3CCN(C)CC3)nc(Sc3ccc(NC(=O)C4CC4)cc3)n2)n[nH]1 [Tozasertib] (partner 0.1 µM)
relative viability (NCI-H647; first compound 0.001 µM): 0.147 | relative viability (NCI-H647; first compound 0.003162 µM): 0.227 | relative viability (NCI-H647; first compound 0.01 µM): 0.164 | relative viability (NCI-H647; first compound 0.03162 µM): 0.143 | relative viability (NCI-H647; first compound 0.1 µM): 0.139 | relative viability (NCI-H460; first compound 0.001 µM): 0.152 | relative viability (NCI-H460; first compound 0.03162 µM): 0.1 | relative viability (NCI-H460; first compound 0.1 µM): 0.0459 | relative viability (HCC-78; first compound 0.001 µM): 0.408 | relative viability (HCC-78; first compound 0.003162 µM): 0.373 | relative viability (HCC-78; first compound 0.01 µM): 0.479 | relative viability (HCC-78; first compound 0.03162 µM): 0.331 | relative viability (HCC-78; first compound 0.1 µM): 0.28 | relative viability (A-427; first compound 0.001 µM): 0.168 | relative viability (A-427; first compound 0.003162 µM): 0.184 | relative viability (A-427; first compound 0.01 µM): 0.149 | relative viability (A-427; first compound 0.03162 µM): 0.167 | relative viability (A-427; first compound 0.1 µM): 0.168 | relative viability (NCI-H661; first compound 0.001 µM): 0.346 | relative viability (NCI-H661; first compound 0.003162 µM): 0.357 | relative viability (NCI-H661; first compound 0.01 µM): 0.364 | relative viability (NCI-H661; first compound 0.03162 µM): 0.382 | relative viability (NCI-H661; first compound 0.1 µM): 0.355 | relative viability (HCC-15; first compound 0.001 µM): 0.236 | relative viability (HCC-15; first compound 0.003162 µM): 0.312 | relative viability (HCC-15; first compound 0.01 µM): 0.217 | relative viability (HCC-15; first compound 0.03162 µM): 0.165 | relative viability (HCC-15; first compound 0.1 µM): 0.136 | relative viability (HOP-62; first compound 0.001 µM): 0.288 | relative viability (HOP-62; first compound 0.01 µM): 0.289 | relative viability (PC-14; first compound 0.001 µM): 0.682 | relative viability (PC-14; first compound 0.003162 µM): 0.485 | relative viability (PC-14; first compound 0.01 µM): 0.53 | relative viability (PC-14; first compound 0.03162 µM): 0.519 | relative viability (PC-14; first compound 0.1 µM): 0.615 | relative viability (EMC-BAC-2; first compound 0.001 µM): 0.259 | relative viability (EMC-BAC-2; first compound 0.003162 µM): 0.258 | relative viability (EMC-BAC-2; first compound 0.01 µM): 0.244 | relative viability (EMC-BAC-2; first compound 0.03162 µM): 0.269 | relative viability (NCI-H2405; first compound 0.001 µM): 0.767 | relative viability (NCI-H2405; first compound 0.003162 µM): 0.765 | relative viability (NCI-H2405; first compound 0.01 µM): 0.712 | relative viability (NCI-H2405; first compound 0.03162 µM): 0.654 | relative viability (NCI-H2405; first compound 0.1 µM): 0.723 | relative viability (COR-L23; first compound 0.001 µM): 0.143 | relative viability (COR-L23; first compound 0.003162 µM): 0.132 | relative viability (COR-L23; first compound 0.01 µM): 0.134 | relative viability (COR-L23; first compound 0.03162 µM): 0.158 | relative viability (COR-L23; first compound 0.1 µM): 0.126 | relative viability (NCI-H522; first compound 0.001 µM): 0.484 | relative viability (NCI-H522; first compound 0.003162 µM): 0.605 | relative viability (NCI-H522; first compound 0.01 µM): 0.521 | relative viability (NCI-H522; first compound 0.03162 µM): 0.558 | relative viability (NCI-H522; first compound 0.1 µM): 0.619 | relative viability (EKVX; first compound 0.001 µM): 0.368 | relative viability (EKVX; first compound 0.003162 µM): 0.341 | relative viability (EKVX; first compound 0.01 µM): 0.35 | relative viability (EKVX; first compound 0.03162 µM): 0.252 | relative viability (EKVX; first compound 0.1 µM): 0.261 | relative viability (201T; first compound 0.003162 µM): 1.18 | relative viability (201T; first compound 0.01 µM): 0.976 | relative viability (201T; first compound 0.03162 µM): 0.691 | relative viability (201T; first compound 0.1 µM): 0.634 | relative viability (SK-MES-1; first compound 0.001 µM): 0.804 | relative viability (SK-MES-1; first compound 0.003162 µM): 0.939 | relative viability (SK-MES-1; first compound 0.01 µM): 1.05 | relative viability (SK-MES-1; first compound 0.03162 µM): 0.572 | relative viability (SK-MES-1; first compound 0.1 µM): 0.524 | relative viability (NCI-H1915; first compound 0.001 µM): 0.366 | relative viability (NCI-H1915; first compound 0.003162 µM): 0.484 | relative viability (NCI-H1915; first compound 0.01 µM): 0.457 | relative viability (NCI-H1915; first compound 0.03162 µM): 0.32 | relative viability (NCI-H1915; first compound 0.1 µM): 0.311 | relative viability (LK-2; first compound 0.001 µM): 0.181 | relative viability (LK-2; first compound 0.003162 µM): 0.163 | relative viability (LK-2; first compound 0.01 µM): 0.155 | relative viability (LK-2; first compound 0.03162 µM): 0.175 | relative viability (BEN; first compound 0.001 µM): 0.498 | relative viability (BEN; first compound 0.003162 µM): 0.494 | relative viability (BEN; first compound 0.01 µM): 0.456 | relative viability (BEN; first compound 0.03162 µM): 0.408 | relative viability (BEN; first compound 0.1 µM): 0.509 | relative viability (NCI-H1993; first compound 0.001 µM): 0.611 | relative viability (NCI-H1993; first compound 0.003162 µM): 0.668 | relative viability (NCI-H1993; first compound 0.01 µM): 0.622 | relative viability (NCI-H1993; first compound 0.03162 µM): 0.586 | relative viability (NCI-H1993; first compound 0.1 µM): 0.631 | relative viability (HCC-366; first compound 0.001 µM): 0.0811 | relative viability (HCC-366; first compound 0.003162 µM): 0.057 | relative viability (HCC-366; first compound 0.01 µM): 0.0646 | relative viability (HCC-366; first compound 0.03162 µM): 0.072 | relative viability (HCC-366; first compound 0.1 µM): 0.05 | relative viability (COR-L 105; first compound 0.001 µM): 0.361 | relative viability (COR-L 105; first compound 0.003162 µM): 0.329 | relative viability (COR-L 105; first compound 0.01 µM): 0.497 | relative viability (COR-L 105; first compound 0.03162 µM): 0.329 | relative viability (COR-L 105; first compound 0.1 µM): 0.317 | relative viability (NCI-H1734; first compound 0.001 µM): 0.251 | relative viability (NCI-H1734; first compound 0.003162 µM): 0.273 | relative viability (NCI-H1734; first compound 0.01 µM): 0.324 | relative viability (NCI-H1734; first compound 0.03162 µM): 0.231 | relative viability (NCI-H1734; first compound 0.1 µM): 0.214
